Literature values, collected in patent US20220088150A1, “Octreotide Microsphere-Based Arterial Embolization for Treating Obesity” (Biovena Science, LLC, priority 2018, published 2022).

What was measured:
insulin hypersecretion = details: six months, 5-15 μg/kg/day
[1] = subcutaneously 5-15 μg/kg/day, six months, compared with placebo
ghrelin secretion = details: continuous infusion, dose- and time-dependent

## C[C@@H](O)[C@@H]1NC(=O)[C@H](CCCCN)NC(=O)[C@@H](Cc2c[nH]c3ccccc23)NC(=O)[C@H](Cc2ccccc2)NC(=O)[C@@H](NC(=O)[C@H](N)Cc2ccccc2)CSSC[C@@H](C(=O)N[C@H](CO)[C@@H](C)O)NC1=O [octreotide, D-phenylalanyl-L-cysteinyl-L-phenylalanyl-D-tryptophyl-L-lysyl-L-threonyl-L-cysteinyl-L-threoninol (2→7)-disulfide]
Insulin hypersecretion
  calorie intake decrease: approximately 700 kcal/day
Insulin hypersecretion; vs pre-study observation period, p=0.0001
  BMI: BMI decrease
Insulin hypersecretion; vs six-month pre-study observation period, p=0.04
  weight loss: greater weight loss
[1]
  weight and BMI: effective in stabilizing weight and BMI
Ghrelin secretion
  ghrelin secretion: suppresses ghrelin secretion
Healthy human subjects
  splanchnic blood flow: reduces splanchnic blood flow
human, in vivo
  gastric emptying: delays gastric emptying
